Measured values reported in a melting point compilation (Tetko et al.; mined from patent text by program, amines drawn as free bases though some values may be those of a salt).

SMILES	melting point [°C]
CC1(C)N=C(c2ccccc2F)c2cc(C#N)ccc2NC1=O	206
O=Cc1c(Cl)cc(O)c(O)c1Cl	213 to 215
Cc1c(F)c(N2CCNCC2)c(Cl)c2c1c(=O)c(C(=O)O)cn2C1CC1	234 to 235
CCOC(=O)c1ccc(CN2CCN(C(=O)OC(C)(C)C)C(C(N)=O)C2)c(C(F)(F)F)c1 (stereo not drawn)	124 to 125
Clc1cccc(-c2ccc3nncn3n2)c1	175 to 177
NC(=O)C1CN(CCCCN(c2ccc(F)cc2)c2ccc(F)cc2)CCN1 (stereo not drawn)	67.4
CCCCN(CCCC)CCCOc1ccc(C(=O)c2c(-c3ccccc3)n(C)c3ccc(NS(C)(=O)=O)cc23)cc1	116
CC(C)(C)CC(C)(C)NC(=O)c1cc(C(C)(C)C)c(OC(=O)c2cc(C(C)(C)C)c(O)c(C(C)(C)C)c2)c(C(C)(C)C)c1	213 to 215
CC(=O)N[C@@H](Cc1ccc(-c2c3ccccc3cc3ccccc23)cc1)C(=O)O	76
CN(C)C=C1CCCc2cc(N3C[C@H](CNC(=O)OC(C)(C)C)OC3=O)ccc2C1=O	157 to 160
Cc1ccc2cccc(OCc3c(Cl)ccc(S(=O)(=O)N(C)Cc4cccc(C(N)=O)c4)c3Cl)c2n1	208
Oc1ccc(C2(c3ccc(O)cc3)c3ccccc3-c3ccccc32)cc1	215
CCN(C(=O)n1oc(C)c(Cl)c1=O)c1ccc(Cl)cc1Cl	101 to 102
O=C(NCCO)/C(=C/c1ccc(OCC(F)F)cc1)NC(=O)c1ccc(OCCCC2CC2)cc1	149 to 151
CNC(=O)N1CC[C@H](OCc2cc(C(F)(F)F)cc(C(F)(F)F)c2)[C@H](Cc2ccccc2)C1 (relative stereo)	160 to 161
CC(=O)C1=C(O)C(=C(C)Nc2ccc(Cl)cc2)C(=O)OC1=O	205 to 206
c1cc(-c2cnc(-c3ccc(-c4cnco4)o3)o2)nc(-c2cnc(-c3ccc(-c4cnco4)o3)o2)c1	> 250
CN1C(=O)N(c2cc(F)c(C#N)cc2F)C(=O)CC1(N)C(F)(F)F (stereo not drawn)	115
O=C(C=Cc1ccc(Cl)cc1)C(CC=Cc1ccc(Cl)cc1)c1ccccc1 (stereo not drawn)	115 to 118
COc1ccc(NC(=O)c2c(C)c([N+](=O)[O-])cc3nc(OC)c(OC)nc23)cc1	206 to 208
CS(=O)(=O)c1ccc(-c2cnn(CC(F)(F)F)c(=O)c2NCC2CC2)cc1	145 to 146
COc1ccc(CN(CCN(C)CCCCCCNC(=O)NCCSCc2csc(NC(=N)N)n2)c2ccccn2)cc1	60
O=C(CBr)Nc1cc(F)c(F)cc1C(=O)O	177 to 180
O=C(O)CCC(Cc1ccccc1Br)(C(=O)C=Cc1ccc(Cl)cc1)c1ccccc1 (stereo not drawn)	210 to 214

SMILES	melting point [°C]
Fc1ccc(-c2cn([C@H]3CN4CCC3CC4)nn2)cc1F	122
Fc1ccc(-c2ncn(C3CCNCC3)c2-c2ccnc(Oc3ccccc3)n2)cc1	182 to 183
COc1cccc(Cc2cc3ccc4ccccc4n3n2)c1	82 to 84
COC(=O)c1cc(N)c(F)cc1Cl	76 to 78
O=C1CCC(C(=O)N2CCN(C(=O)CN3CCOCC3)CC2)N1 (stereo not drawn)	204 to 205
CC(C)c1cccc(C(C)C)c1NC(=O)CNC(c1ccccc1)c1ccc(N(C)C)cc1 (stereo not drawn)	116 to 117
CCOC(=O)c1nn(C)cc1C(F)F	30 to 31
O=C1OC(c2ccccc2)=NC1=NNc1ccccc1	200 to 203
CC(C)(C)OC(=O)c1ccccc1-c1ccc(CNC(=S)NN)cc1	> 45
N#Cc1sc2ccc(Br)cc2c1-c1ccccc1	145 to 146
CCCn1c(=O)c2[nH]c(C34CC5CC(CC(C5)C3)C4)nc2n(CCC)c1=O	169 to 171
CCOC(=O)c1cc(C(=O)NC)nc(C(=O)NC)c1NC	169 to 170
Cn1cncc1C(O)(c1ccc(C(=O)O)cc1)c1ccc2c(c1)c(-c1cccc(Cl)c1)cc(=O)n2C (stereo not drawn)	> 260
CCSc1cnc(OCCOc2ncnc(NS(=O)(=O)c3ccc(C(C)(C)C)cc3)c2-c2ccc(C)cc2)nc1	177 to 178
OCC(O)Cc1ccccc1OCc1ccc2ccccc2c1 (stereo not drawn)	119 to 120
COc1ccc(C=CC(=O)O)cc1-c1cc2c(cc1OCCCO)C(C)(C)CCC2(C)C	198 to 200
CN(C(=O)Cl)c1ccc(C(O)(C(F)(F)F)C(F)(F)F)cc1	152 to 154
COc1cnc(C(=O)Nc2c(Cl)cncc2Cl)cc1OC1CCCC1	129 to 130
O=C(O)CCC(=O)N1CCc2cc(S(=O)(=O)N3CCN(c4ccc(C(=O)O)cc4)CC3)ccc21	255 to 257
CNC(=O)Nc1ccc(Cl)c(Cl)c1	156
Cn1nc(O)c(Cl)c1C(F)(F)F	136 to 140
O=C(CCc1cnoc1-c1ccccc1)Nc1ccc2ncccc2c1	170 to 171
Cc1cnc(CCNC(=O)c2ccccc2NC(=O)c2cccc(C(F)(F)F)c2)[nH]1	168 to 172
Cc1cc(NC(=O)C(C)(O)COc2cc(F)cc(F)c2)ccc1[N+](=O)[O-] (stereo not drawn)	104 to 106

Further lines, results first:

melting point [°C]	SMILES
118 to 120	CC1(C)CCC(N2c3ccccc3Oc3ccc(Cl)cc32)=N1
124 to 126	COc1ccc(C#Cc2cccc(CN(O)C(C)=O)c2)cc1
145 to 147	CCOC(=O)N1CCc2nnc(NN)cc2C1
> 280	CC1(C)Oc2ccc(S(=O)(=O)c3cccc(O)c3)cc2[C@@H](Nc2ccnc(Cl)n2)[C@]1(C)O
230	Oc1ccc(Cl)cc1C(O)(C1CCCCC1)C1CCCCC1
249	CC1(C)CCc2c(N3CCOCC3)nc3sc4c(NCc5cccnc5)ncnc4c3c2C1
96 to 98	CCOCCN(CC1=CCC(N)(Oc2ccccc2)C=C1)C(=O)C(Cl)Cl (stereo not drawn)
125 to 126	CC(C(=O)N(C)O)c1ccc(-c2ccccc2)c(F)c1 (stereo not drawn)
81 to 82	CSc1ncncc1C1c2c(F)cccc2CC1(C)C (stereo not drawn)
201 to 204	Cc1[nH]c2ccc(S(=O)(=O)c3cc(F)cc(F)c3)cc2c1CCNC(=O)OC(C)(C)C
171 to 172	Cc1cccc2c1nc(-c1ccncc1)n2Cc1c(F)cccc1F
99 to 101	COc1ccc(C2=NN(C(C)(C)C)C(=O)[C@H]3CCCC[C@@H]23)cc1OC (relative stereo)
181 to 182	Cc1c(O)c2c(c(C)c1NC(=O)CC(C)(C)C)[C@@H](c1ccc(C(C)C)cc1)CO2
> 175	Nc1nc(N)c(CCCNc2ccc(C(=O)N[C@@H](CCC(=O)O)C(=O)O)cc2F)c(=O)[nH]1
194 to 195	CCCOc1ccc(CN/C=C2\C(=O)NC(=O)c3ccc(-c4ccc(F)cc4)cc32)cc1O
245 to 246	Cc1cc(C)c2sc(-c3ccccn3)nc(=O)c2c1
220 to 221	O=C1C[C@]2(CCCC[C@H]2Cc2ccccc2)S(=O)(=O)CCN1Cc1cccnc1
75 to 76	CCn1nc(OCCCc2ccc(OC(C)C)cc2OCc2ccc(C(F)(F)F)cc2)cc1CCC(=O)O
189 to 192	CCOC(=O)c1cnc2scc(C)c2c1O
139 to 140	COCc1ncnc(O)c1C
179 to 181	CCOC(=O)C(=O)CC(=O)c1cn(Cc2ccc(O)cc2)c2ccccc2c1=O
127 to 128	CCOC(=O)C(C#N)=NC(=CN1CCOCC1)CC
163 to 165	O=c1c2cnc(-c3ccccc3)nc2sn1CCN1CCOCC1
132 to 134	CCCCOC(=O)c1ccc(F)nc1N
251	Cc1cc(C=NNC(=O)c2ccc(O)cc2)oc1C

melting point [°C]	SMILES
138 to 141	CNc1ccccc1C(=O)NCCCn1ccnc1
254 to 256	CCOC(=O)c1cn(CCCl)c2cc(-n3cccc3)c(F)cc2c1=O
172	CC(C)(C)OC(=O)N1CCc2c(n(CC(=O)Nc3ccccc3)c3cc(Cl)c(Cl)cc23)CC1
> 250	CCON1CCC2(CC1)NC(=O)C(c1c(C)cc(C)cc1C)=C2O
190	COc1ccc(CCN(C)CCOc2ccc(NC(=O)c3cccc4c(=O)c5cccc(OC)c5[nH]c34)cc2)cc1OC
145 to 147	O=C1c2cc(Cl)c(Cl)cc2C(O)N1CCO[N+](=O)[O-] (stereo not drawn)
89 to 91	CN(C(=O)Cc1ccccc1)c1ccc(OC23CC4CC(CC(C4)C2)C3)cc1
188 to 190	CCCN1CC(c2cccc(F)c2)=C(c2ccc(S(N)(=O)=O)cc2)C1=O
228 to 229	Cc1ccnc(-c2nc3ccccc3[nH]2)c1
177	Cc1csc(COc2nn3c(-c4ccccc4)nnc3cc2-c2ccccc2)n1
236 to 238	C/C(=C\c1ccc(C(=O)O)cc1)c1cc2c(s1)C(C)(C)CCC2(C)C
186 to 190	CC1(C)CC(O)CC(C)(C)N1CC(O)CN1C(C)(C)CC(O)CC1(C)C
> 320	C[C@@H](Nc1ncnc2[nH]c(-c3ccc(CCl)cc3)cc12)c1ccccc1
190 to 191	CCOC(=O)C1=CC=C2C(=CNN2CC)N1NN=C(C)CC#N
150 to 152	Cc1cc(Cl)nc(N(C=O)c2ccccc2)n1
83 to 84	CN(CCO)c1ccc([N+](=O)[O-])cn1
186	COc1ccc2c(c1)C=Cc1cc(C)ccc1C2c1cn(-c2ccnc(N(C)CC(=O)Nc3nc(CC(=O)O)cs3)n2)c(=O)[nH]c1=O (stereo not drawn)
200 to 201	CCOc1ncc(C(C)=O)cc1-c1nc2c(CC)n(CC3CC3)nc2c(=O)[nH]1
112 to 113	CCNC(=O)n1oc2ccccc2c1=O
122 to 124	COc1ccc2cccc(C(=O)CNC(C)=O)c2c1
104 to 106	CCn1ncc(OCc2ccc(OCOC)cc2)c(Br)c1=O
157 to 158	Nc1ccc(Oc2ccccc2-c2ccccc2Oc2ccc(N)cc2)cc1
96	Cc1ccc(S(=O)(=O)N2CCCC2c2ccc(F)c(Cl)c2)cc1 (racemic)
58 to 60	CCc1cn(-c2nccs2)c2c1C(=O)CC(C)(C)C2
79 to 82	CN1C2=NC(C)(C)N(C)C(=O)N2c2ccccc21
